Values joined by “and” are separate entries in the source; they are usually repeats but may differ in a detail not shown here. Identical values can stand only once.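 Interpolation was linear, between the two tested concentrations surrounding the appropriate level; five concentrations were tested over 48 hours in 96-well plates. The concentration for 50% growth inhibition is given as GI50. TGI: total growth inhibition.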

This passage reports GI50 and TGI results from PubChem BioAssay (NCI).

Test systems include SF-539 CNS; M14 melanoma; SN12C renal; MDA-MB-231 breast; OVCAR-8 ovarian; MOLT-4 leukemia; SW-620 colon; SNB-75 CNS; ACHN renal; DU-145 prostate.
Test in all cases: inhibition of tumour cell growth, NCI panel, 48 h

Consider `Cn1c(=O)c(Oc2ccc(F)cc2F)cc2cnc(NC3CCS(=O)(=O)CC3)nc21`, for which the GI50 in the experiment on SF-539 CNS is more than 25 µM; in the experiment on M14 melanoma, more than 25 µM; in the experiment with SN12C renal it was more than 25 µM; in the experiment with MDA-MB-231 breast, more than 22 µM; with OVCAR-8 ovarian, more than 25 µM; in the experiment on MOLT-4 leukemia, more than 25 µM. In addition, the GI50 was more than 25 µM in the experiment with SW-620 colon, more than 14.2 µM in the experiment with SNB-75 CNS, more than 14.3 µM with ACHN renal and more than 25 µM in the experiment on DU-145 prostate. Also, the TGI in the experiment on SF-539 CNS, with M14 melanoma, in the experiment with SN12C renal, with MDA-MB-231 breast, in the experiment on OVCAR-8 ovarian and with MOLT-4 leukemia was more than 25 µM throughout. Further, the TGI with SW-620 colon, with SNB-75 CNS, in the experiment on ACHN renal and in the experiment with DU-145 prostate was more than 25 µM throughout.
`Cc1cc(C(C)(C)C)cc(CNC2CCCCC2)c1O`: the TGI in the experiment on SF-539 CNS came out at 33 µM; with M14 melanoma, 29.4 µM; with SN12C renal, 29.5 µM; with MDA-MB-231 breast, 32.9 µM; in the experiment on OVCAR-8 ovarian, 31 µM; in the experiment on MOLT-4 leukemia it was 92.4 µM. Besides, the TGI was 40.4 µM in the experiment on SW-620 colon, 26 µM with SNB-75 CNS, 31 µM with ACHN renal and 37.6 µM in the experiment on DU-145 prostate.
`COc1ccc(C2=NN(C(=O)c3cc(OC)c(OC)c(OC)c3)C(c3ccc(N(C)C)cc3)C2)cc1` (configuration not stated): the GI50 was 0.294 µM in the experiment on SF-539 CNS; 0.496 µM in the experiment on M14 melanoma; 2.6 µM in the experiment with SN12C renal; 1.72 µM in the experiment with MDA-MB-231 breast; 2.42 µM with OVCAR-8 ovarian; 3.87 µM with MOLT-4 leukemia. Besides, the GI50 in the experiment on SW-620 colon is 0.427 µM; with SNB-75 CNS it was 0.346 µM; with ACHN renal it was 0.622 µM; in the experiment on DU-145 prostate, 1.74 µM. The TGI in the experiment on SF-539 CNS is 1.52 µM; in the experiment with M14 melanoma, more than 21 µM; in the experiment on SN12C renal, more than 100 µM; with MDA-MB-231 breast, 8.75 µM; with OVCAR-8 ovarian, more than 100 µM; in the experiment on MOLT-4 leukemia it was more than 100 µM. In addition, the TGI in the experiment with SW-620 colon was more than 100 µM; with SNB-75 CNS, 8.72 µM; with ACHN renal it was more than 100 µM; with DU-145 prostate, more than 23.7 µM.
Turning to `Cc1c(O)c2c(c(O)c1Br)C(=O)C=CC2=O`, the GI50 in the experiment with SF-539 CNS is 1.68 µM; with M14 melanoma, 1.01 µM; with MDA-MB-231 breast it was 1.58 µM; in the experiment on SW-620 colon, 0.449 µM; in the experiment with SNB-75 CNS it was 2.1 µM; in the experiment on ACHN renal, 0.489 µM. The GI50 with DU-145 prostate was 1.82 µM. In addition, the TGI in the experiment on SF-539 CNS is 1.66 µM and 3.1 µM; in the experiment on M14 melanoma it was 1.11 µM and 2.28 µM; in the experiment with SN12C renal, 2.73 µM; in the experiment with MDA-MB-231 breast, 3.01 µM and 3.48 µM; in the experiment with OVCAR-8 ovarian, 2.74 µM; in the experiment on MOLT-4 leukemia, 0.101 µM. In addition, the TGI with SW-620 colon is 0.364 µM and 2.27 µM; with SNB-75 CNS it was 2.85 µM and 5.07 µM; in the experiment on ACHN renal it was 2.2 µM and 1.83 µM; in the experiment with DU-145 prostate it was 2.85 µM and 3.24 µM.
For `CC(=O)c1cc(C(=O)c2ccc3c(c2)Sc2ccccc2N3)c2cc(C)ccn12`, the GI50 in the experiment with SF-539 CNS is 0.0581 µM; in the experiment with M14 melanoma it was 0.0593 µM; in the experiment with SN12C renal, 0.479 µM; in the experiment with MDA-MB-231 breast, 0.348 µM; in the experiment with OVCAR-8 ovarian, 0.451 µM; with MOLT-4 leukemia it was 0.329 µM. Moreover, the GI50 is 0.0559 µM in the experiment with SW-620 colon, 0.0416 µM with SNB-75 CNS, 0.0816 µM in the experiment with ACHN renal and 0.188 µM with DU-145 prostate. In addition, the TGI in the experiment on SF-539 CNS is 0.826 µM; in the experiment on M14 melanoma, more than 100 µM; with SN12C renal it was more than 100 µM; in the experiment with MDA-MB-231 breast, more than 100 µM; with OVCAR-8 ovarian, more than 100 µM; with MOLT-4 leukemia, more than 100 µM. The TGI with SW-620 colon, in the experiment on SNB-75 CNS, in the experiment with ACHN renal and with DU-145 prostate was more than 100 µM each time.
On to `COc1ccc(C2C=C(c3ccc4c(c3)OCO4)Oc3c2c(=O)oc2ccccc32)cc1OC` (configuration not stated), for which the TGI in the experiment on SF-539 CNS was 1.81 µM; with M14 melanoma it was more than 100 µM; in the experiment with SN12C renal, more than 100 µM; with MDA-MB-231 breast, more than 100 µM; in the experiment on OVCAR-8 ovarian it was more than 100 µM; in the experiment with MOLT-4 leukemia, more than 100 µM. In addition, the TGI is more than 100 µM with SW-620 colon, 34.2 µM in the experiment with SNB-75 CNS, more than 100 µM in the experiment with ACHN renal and more than 100 µM in the experiment on DU-145 prostate.
On to `O=C(O)c1ccc(C(=O)O)c(C(=O)Nc2ccc3c(c2)C(=O)c2ccccc2-3)c1`, for which the TGI in the experiment on SF-539 CNS, with M14 melanoma, with SN12C renal, with MDA-MB-231 breast, in the experiment with OVCAR-8 ovarian and in the experiment on MOLT-4 leukemia was more than 100 µM throughout. For the same compound, the TGI in the experiment on SW-620 colon, with SNB-75 CNS, with ACHN renal and in the experiment on DU-145 prostate was more than 100 µM each time.
As to `O=C(Nc1ccc(/C=C/c2ccc(NC(=O)c3cc(S(=O)(=O)O)c4cccnc4c3O)cc2S(=O)(=O)O)c(S(=O)(=O)O)c1)c1cc(S(=O)(=O)O)c2cccnc2c1O`, the GI50 is 11.3 µM in the experiment on SF-539 CNS; 7.18 µM with M14 melanoma; 4.36 µM in the experiment with SN12C renal; 16.3 µM in the experiment with MDA-MB-231 breast; 9.66 µM in the experiment on OVCAR-8 ovarian; 1.69 µM with MOLT-4 leukemia. Moreover, the GI50 in the experiment with SW-620 colon was 17.8 µM; with SNB-75 CNS, 8.18 µM; in the experiment on ACHN renal, 3.37 µM; in the experiment with DU-145 prostate it was 17.7 µM. In addition, the TGI was more than 54.9 µM with SF-539 CNS; more than 49 µM in the experiment with M14 melanoma; more than 59.2 µM with SN12C renal; more than 68.4 µM with MDA-MB-231 breast; more than 72.4 µM in the experiment on OVCAR-8 ovarian; more than 28.7 µM with MOLT-4 leukemia. The TGI in the experiment on SW-620 colon was more than 83.8 µM; in the experiment on SNB-75 CNS, 48.7 µM; in the experiment with ACHN renal it was more than 15.8 µM; with DU-145 prostate, more than 50.7 µM.
As for `COc1cc2c(cc1Nc1nc(Nc3cccc(F)c3C(N)=O)c3cc[nH]c3n1)N(C(=O)CN1CCN(C(C)C)CC1)CC2`, the GI50 with SF-539 CNS is 3.74 µM; with M14 melanoma it was 3.99 µM; with SN12C renal, 4.66 µM; in the experiment on MDA-MB-231 breast, 3.94 µM; with OVCAR-8 ovarian, 4.54 µM; with MOLT-4 leukemia it was 4.74 µM. In addition, the GI50 is 2.81 µM with SW-620 colon, 3 µM with SNB-75 CNS, 4.59 µM with ACHN renal and 3.77 µM in the experiment with DU-145 prostate. Further, the TGI with SF-539 CNS was 7.7 µM; in the experiment with M14 melanoma it was 7.54 µM; in the experiment on SN12C renal, 10.5 µM; in the experiment on MDA-MB-231 breast, 8.22 µM; with OVCAR-8 ovarian, 10.2 µM; with MOLT-4 leukemia it was 10.7 µM. Further, the TGI was found to be 5.96 µM with SW-620 colon, 6.18 µM with SNB-75 CNS, 10.2 µM in the experiment with ACHN renal and 7.28 µM in the experiment with DU-145 prostate.
